Measurements as given in US20240287138A1, “CYCLIC PEPTIDES FOR INHIBITING TNF RECEPTOR 1 ACTIVITY” (Merck Sharp & Dohme LLC, priority 2023, published 2024).
pIC50, pKd: −log10 of the molar value. Numbered stars: 1 amine (or outer) side, 2 acyl side, 3 side chain; on linkers, the order of the positions; unused ones are H or OH. Bridge positions count the residues as written; N and C are the ends. Square brackets hold non-standard residues; d marks the D form. Peptide text beside a SMILES is read from it. * marks the point of attachment. Trp(βS-Me,7-OMe) = COc1cccc2c([C@H](C)[C@H](N)C(=O)O)c[nH]c12; X24 = O=C(O)c1ccc([C@@H](O)[C@H](N[*:1])C(=O)[*:2])cc1; X28 = NC(=O)c1ccc([C@H](O)[C@H](N[*:1])C(=O)[*:2])cc1; Trp(7-CN) = N#Cc1cccc2c(C[C@H](N)C(=O)O)c[nH]c12; Trp(7-Cl) = N[C@@H](Cc1c[nH]c2c(Cl)cccc12)C(=O)O; X29 = NC(=O)Cc1cccc(C[C@H](N[*:1])C(=O)[*:2])c1; Phe(4-CONH2) = NC(=O)c1ccc(C[C@H](N)C(=O)O)cc1; Phe(4-COOH) = N[C@@H](Cc1ccc(C(=O)O)cc1)C(=O)O; Trp(7-aza) = N[C@@H](Cc1c[nH]c2ncccc12)C(=O)O; Pip(5R-OH) = O=C(O)[C@@H]1CC[C@@H](O)CN1; X1 = O=C([C@@H]1CC[C@H](N[*:1])C1)[*:2]; Gly(N(CH2)3COOH) = O=C(O)CCCNCC(=O)O; Pip(4-aza) = O=C(O)[C@@H]1CNCCN1; 4Pal = N[C@@H](Cc1ccncc1)C(=O)O; NMeE = CN[C@@H](CCC(=O)O)C(=O)O; dHyp = O=C(O)[C@H]1C[C@H](O)CN1; Pip = O=C(O)[C@@H]1CCCCN1; αMeS = C[C@](N)(CO)C(=O)O; Nle = CCCC[C@H](N)C(=O)O; Ethyl(2-NH2) = NCC*; Sar = CNCC(=O)O; X22 = C1CC1C*

Key:
[1] = biological target: T1, human soluble TNFR1 (sTNFR1) (Homo sapiens, UniProt P19438); assay: Human sTNFR1-peptide displacement assay (LanthaScreen Eu TR-FRET binding assay)
T1 construct: made in house; host or cells: Sf21 (baculovirus)
T1 sequence (P19438 with tags, fused parts or gaps): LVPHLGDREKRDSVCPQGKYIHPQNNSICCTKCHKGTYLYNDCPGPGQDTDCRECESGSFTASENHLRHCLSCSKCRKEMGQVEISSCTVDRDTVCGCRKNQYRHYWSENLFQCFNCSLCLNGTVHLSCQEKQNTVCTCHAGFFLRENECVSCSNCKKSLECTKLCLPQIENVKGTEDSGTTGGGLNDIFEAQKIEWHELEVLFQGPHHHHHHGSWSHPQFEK
Method in brief: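 Readout is the 665/615 nm TR-FRET ratio (Eu anti-His donor, streptavidin-Alexa647 acceptor), normalized to DMSO and saturating displacer, fit by Morrison-based five-parameter logistic for Kd^app. His-tagged sTNFR1 (1-211) prebound to 100 nM biotinylated peptide SEQ ID NO.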

human TNFR2 ECD protein = biological target: T2, human TNFR2 ECD protein (Homo sapiens, UniProt P20333); assay: SPR off-target binding (selectivity) to human TNFR2 ECD
T2 construct: HRV 3C protease cleavage site (C); 6His (C, cleaved yes); made in house; host or cells: Sf21 insect cells (baculovirus), secreted
T2 sequence (P20333 23-257): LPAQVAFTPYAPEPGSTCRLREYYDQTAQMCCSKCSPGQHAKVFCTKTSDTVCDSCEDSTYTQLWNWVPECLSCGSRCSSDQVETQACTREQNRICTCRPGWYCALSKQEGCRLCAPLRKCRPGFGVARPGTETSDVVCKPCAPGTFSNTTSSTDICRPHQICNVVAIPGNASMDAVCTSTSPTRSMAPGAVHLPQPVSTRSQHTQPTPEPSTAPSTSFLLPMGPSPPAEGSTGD
Method in brief: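 Biotinylated human TNFR1 or TNFR2 ECD (C-terminal Avi-tag, Sf21-expressed) captured on a regenerable streptavidin chip; peptide analytes flowed in 10 mM HEPES pH 7.4, 150 mM NaCl, 3 mM EDTA, 0.05% P20, 2% DMSO. kon and koff measured; affinity calculated from the rate constants.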

Row | SMILES | pKd [1] | pKd (human TNFR2 ECD protein) | pIC50 [1]
1 | COc1cccc2c([C@H](C)[C@@H]3NC(=O)CN(C)C(=O)[C@H](Cc4ccc(C(=O)O)cc4)NC(=O)[C@H](Cc4ccc(C(N)=O)cc4)NC(=O)[C@](C)(CO)NC(=O)[C@H](Cc4c[nH]c5c(Cl)cccc45)NC(=O)[C@H](Cc4ccc(C(=O)O)cc4)NC(=O)[C@H](CC(N)=O)NC(=O)[C@H]4C[C@H](O)CN4C(=O)[C@H](Cc4c[nH]c5ncccc45)NC(=O)[C@@H]4CC[C@@H](O)CN4C(=O)[C@H](Cc4ccncc4)NC(=O)[C@H](COCCN)NC(=O)[C@@H]4CC[C@@H](C4)NC3=O)c[nH]c12 [SEQ ID NO. 148] (cyclo([4Pal][Pip(5R-OH)][Trp(7-aza)][dHyp]N[Phe(4-COOH)][Trp(7-Cl)][αMeS][Phe(4-CONH2)][Phe(4-COOH)][Sar][Trp(βS-Me,7-OMe)][X1]S(Ethyl(2-NH2)))) | 9.05 | < 6.00 | –
2 | COc1cccc2c([C@H](C)[C@@H]3NC(=O)CN(C)C(=O)[C@H](Cc4ccc(C(=O)O)cc4)NC(=O)[C@H](Cc4ccc(C(N)=O)cc4)NC(=O)[C@](C)(CO)NC(=O)[C@H](Cc4c[nH]c5c(C#N)cccc45)NC(=O)[C@H](Cc4ccc(C(=O)O)cc4)NC(=O)[C@H](CC(N)=O)NC(=O)[C@H]4C[C@H](O)CN4C(=O)[C@H](Cc4c[nH]c5ncccc45)NC(=O)[C@@H]4CC[C@@H](O)CN4C(=O)[C@H](Cc4ccncc4)NC(=O)[C@H](COCC4CC4)NC(=O)[C@@H]4CC[C@@H](C4)NC3=O)c[nH]c12 [SEQ ID NO. 149] (cyclo([4Pal][Pip(5R-OH)][Trp(7-aza)][dHyp]N[Phe(4-COOH)][Trp(7-CN)][αMeS][Phe(4-CONH2)][Phe(4-COOH)][Sar][Trp(βS-Me,7-OMe)][X1]S(X22))) | 9.68 | < 6.00 | –
3 | CCCC[C@@H]1NC(=O)[C@@H]2CC[C@@H](C2)NC(=O)[C@H]([C@@H](C)c2c[nH]c3c(OC)cccc23)NC(=O)CN(C)C(=O)[C@H](Cc2cccc(CC(N)=O)c2)NC(=O)[C@H](Cc2ccc(C(=O)O)cc2)NC(=O)[C@](C)(CO)NC(=O)[C@H](Cc2c[nH]c3c(Cl)cccc23)NC(=O)[C@H](Cc2ccncc2)NC(=O)[C@H](CC(N)=O)NC(=O)[C@H](CCC(=O)O)N(C)C(=O)[C@H](Cc2c[nH]c3ccccc23)NC(=O)[C@@H]2CNCCN2C(=O)[C@H](Cc2ccncc2)NC1=O [SEQ ID NO. 153] (cyclo([4Pal][Trp(7-Cl)][αMeS][Phe(4-COOH)][X29][Sar][Trp(βS-Me,7-OMe)][X1][Nle][4Pal][Pip(4-aza)]W[NMeE]N)) | 9.64 | < 6.00 | –
4 | CCCC[C@@H]1NC(=O)[C@@H]2CC[C@@H](C2)NC(=O)[C@H]([C@@H](C)c2c[nH]c3c(OC)cccc23)NC(=O)CN(C)C(=O)[C@H]([C@H](O)c2ccc(C(=O)O)cc2)NC(=O)[C@H]([C@@H](O)c2ccc(C(N)=O)cc2)NC(=O)[C@](C)(CO)NC(=O)[C@H](Cc2c[nH]c3c(C#N)cccc23)NC(=O)[C@H](Cc2ccncc2)NC(=O)[C@H](CC(N)=O)NC(=O)[C@H]2C[C@H](O)CN2C(=O)[C@H](Cc2c[nH]c3ccccc23)NC(=O)[C@@H]2CC[C@@H](O)CN2C(=O)[C@H](Cc2ccncc2)NC1=O [SEQ ID NO. 155] (cyclo([4Pal][Trp(7-CN)][αMeS][X28][X24][Sar][Trp(βS-Me,7-OMe)][X1][Nle][4Pal][Pip(5R-OH)]W[dHyp]N)) | 10.00 | < 6.00 | –
5 | CCCC[C@@H]1NC(=O)CSC[C@@H](C(N)=O)NC(=O)[C@H]([C@@H](C)c2c[nH]c3c(OC)cccc23)NC(=O)CN(C)C(=O)[C@H](Cc2ccc(O)cc2)NC(=O)[C@H](Cc2ccc(C(=O)O)cc2)NC(=O)[C@](C)(CO)NC(=O)[C@H](Cc2c[nH]c3c(Cl)cccc23)NC(=O)[C@H](Cc2ccncc2)NC(=O)[C@H](CC(N)=O)NC(=O)CN(CCCC(=O)O)C(=O)[C@H](Cc2c[nH]c3ncccc23)NC(=O)[C@@H]2CCCCN2C(=O)[C@H](Cc2ccncc2)NC1=O [SEQ ID NO. 157] ({CH2CO}-[Nle][4Pal][Pip][Trp(7-aza)][Gly(N(CH2)3COOH)]N[4Pal][Trp(7-Cl)][αMeS][Phe(4-COOH)]Y[Sar][Trp(βS-Me,7-OMe)]C-NH2; thioether N-14) | 9.19 | < 6.00 | 9.14
